# Where a name gives a salt, the structure may show the parent alone.
# Molecular target: human activated kallikrein enzyme (Homo sapiens, UniProt P03952)
# Experiment: Inhibition of human activated plasma kallikrein, fluorogenic PFR-AMC substrate, 500 pM enzyme format
# Format: biochemical
# Conditions: 500 pM activated kallikrein; 300 μM PFR-AMC; 30 min preincubation; 10 min room temperature; pH 7.5; read-out: Primary Dose Response Assay: Average EC50
# Procedure, shortened: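 500 pM activated kallikrein preincubated 30 min at room temperature with inhibitors in pH 7.5 Tris/EDTA/NaCl buffer with PEG-400 and Triton X-100. Reaction started with 300 μM PFR-AMC, run 10 min at room temperature; AMC fluorescence read at ex 380/em 460 nm.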
# Sequence of human activated kallikrein enzyme (P03952 391-638 limits assumed): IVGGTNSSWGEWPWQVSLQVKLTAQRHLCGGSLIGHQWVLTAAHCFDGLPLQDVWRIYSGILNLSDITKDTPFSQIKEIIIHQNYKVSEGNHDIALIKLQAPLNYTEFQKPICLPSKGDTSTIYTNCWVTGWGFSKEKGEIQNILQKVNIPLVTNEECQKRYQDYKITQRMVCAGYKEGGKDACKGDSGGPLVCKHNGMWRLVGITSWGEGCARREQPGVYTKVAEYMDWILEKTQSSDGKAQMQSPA
# Sequence of human activated kallikrein enzyme (P03952 20-390 partner limits assumed): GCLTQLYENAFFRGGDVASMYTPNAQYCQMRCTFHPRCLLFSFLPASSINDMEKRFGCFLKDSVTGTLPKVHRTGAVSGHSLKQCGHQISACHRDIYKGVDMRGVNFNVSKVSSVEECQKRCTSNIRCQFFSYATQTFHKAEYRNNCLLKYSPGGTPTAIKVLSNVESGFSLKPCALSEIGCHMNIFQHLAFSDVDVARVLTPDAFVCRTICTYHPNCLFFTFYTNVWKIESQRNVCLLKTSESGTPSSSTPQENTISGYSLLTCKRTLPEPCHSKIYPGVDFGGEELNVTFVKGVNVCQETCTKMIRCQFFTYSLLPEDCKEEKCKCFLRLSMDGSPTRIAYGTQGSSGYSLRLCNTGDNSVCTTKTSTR
row,Structure (SMILES),EC50
1,"Cc1cc2c(N)nccc2c(C)c1CNc1cc(NCc2cc3c(Cl)cccc3cn2)ncn1 [Example 328, N^4-((1-amino-5,7-dimethylisoquinolin-6-yl)methyl)-N^6-((5-chloroisoquinolin-3-yl)methyl)pyrimidine-4,6-diamine, formic acid salt]",1 to 10 nM
2,"Cc1cc2c(N)nccc2c(C)c1CNc1cc(NCc2cn3cc(C(F)(F)F)ccc3n2)ncn1 [Example 329, N^4-((1-amino-5,7-dimethylisoquinolin-6-yl)methyl)-N^6-((6-(trifluoromethyl)imidazo[1,2-a]pyridin-2-yl)methyl)pyrimidine-4,6-diamine]",< 1 nM
3,"Cc1cc2c(N)nccc2c(C)c1CNc1cc(NCc2cn3c(C)c(Cl)ccc3n2)ncn1 [Example 330, N^4-((1-amino-5,7-dimethylisoquinolin-6-yl)methyl)-N^6-((6-chloro-5-methylimidazo[1,2-a]pyridin-2-yl)methyl)pyrimidine-4,6-diamine]",< 1 nM
4,"Cc1cc2c(N)nccc2c(C)c1CNc1cc(NCc2cn3cc(C#N)ccc3n2)ncn1 [Example 332, 2-(((6-(((1-amino-5,7-dimethylisoquinolin-6-yl)methyl)amino)pyrimidin-4-yl)amino)methyl)imidazo[1,2-a]pyridine-6-carbonitrile]",1 to 10 nM
5,"Cc1ccc2nc(CNc3cc(NCc4c(C)cc5c(N)nccc5c4C)ncn3)cn2c1 [Example 333, N^4-((1-amino-5,7-dimethylisoquinolin-6-yl)methyl)-N^6-((6-methylimidazo[1,2-a]pyridin-2-yl)methyl)pyrimidine-4,6-diamine]",< 1 nM
6,"Cc1cc2c(N)nccc2c(C)c1CNc1cc(NCc2ccc3ncc(F)cc3c2)ncn1 [Example 334, N^4-((1-amino-5,7-dimethylisoquinolin-6-yl)methyl)-N^6-((3-fluoroquinolin-6-yl)methyl)pyrimidine-4,6-diamine]",< 1 nM
7,"Cc1ccc2cc(CNc3cc(NCc4c(C)cc5c(N)nccc5c4C)ncn3)ccc2n1 [Example 335, N^4-((1-amino-5,7-dimethylisoquinolin-6-yl)methyl)-N^6-((2-methylquinolin-6-yl)methyl)pyrimidine-4,6-diamine]",< 1 nM
8,"Cc1cnc2ccc(CNc3cc(NCc4c(C)cc5c(N)nccc5c4C)ncn3)cc2c1 [Example 336, N^4-((1-amino-5,7-dimethylisoquinolin-6-yl)methyl)-N^6-((3-methylquinolin-6-yl)methyl)pyrimidine-4,6-diamine]",< 1 nM
9,"Cc1cc2c(N)nccc2c(C)c1CNc1cc(NCc2ccc3ncccc3c2)ncn1 [Example 337, N^4-((1-amino-5,7-dimethylisoquinolin-6-yl)methyl)-N^6-(quinolin-6-ylmethyl)pyrimidine-4,6-diamine]",1 to 10 nM
10,"Cc1cc2c(N)nccc2c(C)c1CNc1cc(NCc2ccc(Cc3cnccn3)cc2)ncn1 [Example 338, N^4-((1-amino-5,7-dimethylisoquinolin-6-yl)methyl)-N^6-(4-(pyrazin-2-ylmethyl)benzyl)pyrimidine-4,6-diamine]",1 to 10 nM
11,"Cc1cc2c(N)nccc2c(C)c1CNc1cc(NCc2ccc(C3CC3)cc2)ncn1 [Example 339, N^4-((1-amino-5,7-dimethylisoquinolin-6-yl)methyl)-N^6-(4-cyclopropylbenzyl)pyrimidine-4,6-diamine]",10 to 100 nM
12,"Cc1cc2c(N)nccc2c(C)c1CNc1cc(NCc2ccccc2)ncn1 [Example 341, N^4-((1-amino-5,7-dimethylisoquinolin-6-yl)methyl)-N^6-benzylpyrimidine-4,6-diamine]",100 to 1000 nM
13,"Cc1cc2c(N)nccc2c(C)c1CNc1cc(NCc2ccc(Cc3ncnn3C)cc2)ncn1 [Example 342, N^4-((1-amino-5,7-dimethylisoquinolin-6-yl)methyl)-N^6-(4-((1-methyl-1H-1,2,4-triazol-5-yl)methyl)benzyl)pyrimidine-4,6-diamine]",< 1 nM
14,"Cc1nnc(Cc2ccc(CNc3cc(NCc4c(C)cc5c(N)nccc5c4C)ncn3)cc2)s1 [Example 343, N^4-((1-amino-5,7-dimethylisoquinolin-6-yl)methyl)-N^6-(4-((5-methyl-1,3,4-thiadiazol-2-yl)methyl)benzyl)pyrimidine-4,6-diamine]",> 1000 nM
15,"Cc1cc2c(N)nccc2c(C)c1CNc1cc(NCc2ccc(OCC(=O)N3CC4CC4C3)cc2)ncn1 (stereo not drawn) [Example 344, 2-(4-(((6-(((1-amino-5,7-dimethylisoquinolin-6-yl)methyl)amino)pyrimidin-4-yl)amino)methyl)phenoxy)-1-(3-azabicyclo[3.1.0]hexan-3-yl)ethan-1-one, formic acid salt]",< 1 nM
16,"Cc1cc2c(N)nccc2c(C)c1CNc1cc(NCc2ccc(OCC(=O)N3CCCC3)cc2)ncn1 [Example 345, 2-(4-(((6-(((1-amino-5,7-dimethylisoquinolin-6-yl)methyl)amino)pyrimidin-4-yl)amino)methyl)phenoxy)-1-(pyrrolidin-1-yl)ethan-1-one]",< 1 nM
17,"Cc1cc2c(N)nccc2c(C)c1CNc1cc(NCc2ccc(OCC(=O)N3CCCCC3)cc2)ncn1 [Example 346, 2-(4-(((6-(((1-amino-5,7-dimethylisoquinolin-6-yl)methyl)amino)pyrimidin-4-yl)amino)methyl)phenoxy)-1-(piperidin-1-yl)ethan-1-one]",1 to 10 nM
18,"Cc1cc2c(N)nccc2c(C)c1CNc1cc(NCc2ccc(OCC(=O)N3CCC3)cc2)ncn1 [Example 347, 2-(4-(((6-(((1-amino-5,7-dimethylisoquinolin-6-yl)methyl)amino)pyrimidin-4-yl)amino)methyl)phenoxy)-1-(azetidin-1-yl)ethan-1-one, formic acid salt]",< 1 nM
19,"Cc1cc2c(N)nccc2c(C)c1CNc1cc(NCc2cc(C)c(OCC(=O)N(C)C)c(C)c2)ncn1 [Example 348, 2-(4-(((6-(((1-amino-5,7-dimethylisoquinolin-6-yl)methyl)amino)pyrimidin-4-yl)amino)methyl)-2,6-dimethylphenoxy)-N,N-dimethylacetamide]",1 to 10 nM

# The next lines start with the values.
row,EC50,Structure (SMILES)
1,1 to 10 nM,"Cc1cc2c(N)nccc2c(C)c1CNc1cc(NCc2ccc(OCc3ccccn3)cc2)ncn1 [Example 349, N^4-((1-amino-5,7-dimethylisoquinolin-6-yl)methyl)-N^6-(4-(pyridin-2-ylmethoxy)benzyl)pyrimidine-4,6-diamine, formic acid salt]"
2,< 1 nM,"Cc1cc2c(N)nccc2c(C)c1CNc1cc(NCc2ccc(Cc3cscn3)cc2)ncn1 [Example 350, N^4-((1-amino-5,7-dimethylisoquinolin-6-yl)methyl)-N^6-(4-(thiazol-4-ylmethyl)benzyl)pyrimidine-4,6-diamine]"
3,1 to 10 nM,"Cc1cc2c(N)nccc2c(C)c1CNc1cc(NCc2ccc(OCc3ncco3)cc2)ncn1 [Example 351, N^4-((1-amino-5,7-dimethylisoquinolin-6-yl)methyl)-N^6-(4-(oxazol-2-ylmethoxy)benzyl)pyrimidine-4,6-diamine, formic acid salt]"
4,10 to 100 nM,"Cc1cc2c(N)nccc2c(C)c1CNc1cc(NCc2ccc(OC(F)(F)C(=O)N(C)C)cc2)ncn1 [Example 352, 2-(4-(((6-(((1-amino-5,7-dimethylisoquinolin-6-yl)methyl)amino)pyrimidin-4-yl)amino)methyl)phenoxy)-2,2-difluoro-N,N-dimethylacetamide]"
5,10 to 100 nM,"Cc1cc2c(N)nccc2c(C)c1CNc1cc(NCc2cc(C)c(OCc3ccccn3)c(C)c2)ncn1 [Example 353, N^4-((1-amino-5,7-dimethylisoquinolin-6-yl)methyl)-N^6-(3,5-dimethyl-4-(pyridin-2-ylmethoxy)benzyl)pyrimidine-4,6-diamine, formic acid salt]"
6,10 to 100 nM,"Cc1cc2c(N)nccc2c(C)c1CNc1cc(NCc2ccc(OC(C)(C)C(=O)N(C)C)cc2)ncn1 [Example 354, 2-(4-(((6-(((1-amino-5,7-dimethylisoquinolin-6-yl)methyl)amino)pyrimidin-4-yl)amino)methyl)phenoxy)-N,N,2-trimethylpropanamide, formic acid salt]"
7,1 to 10 nM,"Cc1cc2c(N)nccc2c(C)c1CNc1cc(NCc2cc(C)c(OCc3nccs3)c(C)c2)ncn1 [Example 355, N^4-((1-amino-5,7-dimethylisoquinolin-6-yl)methyl)-N^6-(3,5-dimethyl-4-(thiazol-2-ylmethoxy)benzyl)pyrimidine-4,6-diamine, formic acid salt]"
8,< 1 nM,"Cc1cc2c(N)nccc2c(C)c1CNc1cc(NCc2ccc(OCc3nccs3)cc2)ncn1 [Example 356, N^4-((1-amino-5,7-dimethylisoquinolin-6-yl)methyl)-N^6-(4-(thiazol-2-ylmethoxy)benzyl)pyrimidine-4,6-diamine]"
9,10 to 100 nM,"Cc1cc2c(N)nccc2c(C)c1CNc1cc(NCc2ccc(OC3(C(=O)N(C)C)CC3)cc2)ncn1 [Example 357, 1-(4-( ((6-(((1-amino-5,7-dimethylisoquinolin-6-yl)methyl)amino)pyrimidin-4-yl)amino)methyl)phenoxy)-N,N-dimethylcyclopropane-1-carboxamide, formic acid salt]"
10,1 to 10 nM,"Cc1cc2c(N)nccc2c(C)c1CNc1cc(NCc2ccc(Cc3cc[nH]n3)cc2)ncn1 [Example 358, N^4-(4-((1H-pyrazol-3-yl)methyl)benzyl)-N^6-((1-amino-5,7-dimethylisoquinolin-6-yl)methyl)pyrimidine-4,6-diamine]"

# Same assay, conditions: Primary Dose Response Assay: Average EC50, 500 pM activated kallikrein; 300 μM PFR-AMC; 30 min preincubation; 10 min room temperature; pH 7.5
row,EC50,Structure (SMILES)
1,< 1 nM,"Cc1cc(CNc2cc(NCc3c(C)cc4c(N)nccc4c3C)ncn2)cc(C)c1CC(=O)N1CC2CC2C1 (stereo not drawn) [Example 359, 2-(4-(((6-(((1-amino-5,7-dimethylisoquinolin-6-yl)methyl)amino)pyrimidin-4-yl)amino)methyl)-2,6-dimethylphenyl)-1-(3-azabicyclo[3.1.0]hexan-3-yl)ethan-1-one]"

# Reference: patent US20260374754A1, “N-((ISOQUINOLIN-6-YL)METHYL)-1H-PYRAZOLE-4-CARBOXAMIDE DERIVATIVES AS PLASMA KALLIKREIN INHIBITORS FOR THE TREATMENT OF HEREDITARY ANGIODEMA” (Takeda Pharmaceutical Company Limited, priority 2022, published 2026)
